Values of other authors in patent US9029427B2, “Controlled release solid preparation” (Asahi Kasei Chemicals Corporation, priority 2005, dated 2015).

Conditions: water

Row | Compound | amount of solvent required for dissolving 1 g of solute
1 | CCOc1ccccc1C(N)=O [Ethenzamide] | ≥ 10000 cm^3
2 | O=C([O-])c1ccccc1O.[Na+] [sodium salicylate] | less than 1 cm^3
